According to patent publication US8377458B2, “Cooling sensation agent composition, sensory stimulation agent composition and use of the same” (Takasago International Corporation, priority 2009, dated 2013):

Tests used:
[1] = tested on: inside of upper parts of arms; experiment: Test of a cooling towel (washing processed), sensory evaluation; format: in vivo, human (panelists); conditions: for total score of the ranking numbers (cooling effect on treated hand towel after washing): 1% in washing detergent
Protocol: The hand towel thus prepared and those after further air-dried for 24 hours or 48 hours were brought into contact with the inside of upper parts of arms, and the cooling action thereof was determined organoleptically. Meanwhile, the evaluation was carried out by five panelists having 5 years or longer experience. The above compounds, mixtures and menthoxypropanediol were divided into three groups of A to C (group A; […] The results are shown by the total score of the ranking numbers. […] In other words, smaller total score means to show a better cooling sensation effect.

[2] = tested on: inside of upper parts of arms; experiment: Test of a cooling towel (direct spraying), sensory evaluation; format: in vivo, human (panelists)
Protocol: Those which were air-dried for 10 minutes, 3 hours or 24 hours after spraying were sensory evaluated. The sensory evaluation was carried out by touching the cooling towel with the inside of upper parts of arms, and cooling action at that time was determined. Meanwhile, the evaluation was carried out by five panelists having 5 years or longer experience. […] The results are shown by the total score of the ranking numbers. In other words, smaller total score means to show a better cooling sensation effect.

[3] = Group A (4 samples ranked by 5 panelists, smaller = better), after 6 hr air drying
[4] = Group A, after 24 hr, smaller = better
[5] = Group A, after 48 hr, smaller = better
[6] = Group A (5 samples ranked by 5 panelists, smaller = better), direct spraying 1 g of 1% ethanol solution, after 10 min air drying
[7] = Group A, direct spraying, after 3 hr air drying, smaller = better
[8] = Group A, direct spraying, after 24 hr air drying, smaller = better
[9] = Group B, direct spraying, after 10 min air drying, smaller = better
[10] = Group B, direct spraying, after 3 hr air drying, smaller = better
[11] = Group B, direct spraying, after 24 hr air drying, smaller = better
[12] = Group B, after 6 hr, smaller = better
[13] = Group B, after 24 hr, smaller = better
[14] = Group B, after 48 hr, smaller = better
[15] = Group C, after 6 hr, smaller = better
[16] = Group C, after 24 hr, smaller = better
[17] = Group C, after 48 hr, smaller = better
[18] = Group C, direct spraying, after 10 min air drying, smaller = better
[19] = Group C, direct spraying, after 3 hr air drying, smaller = better
[20] = Group C, direct spraying, after 24 hr air drying, smaller = better

SMILES | total score of the ranking numbers (cooling effect on treated hand towel after washing) [1, 3] | total score of the ranking numbers (cooling effect on treated hand towel after washing) [1, 4] | total score of the ranking numbers (cooling effect on treated hand towel after washing) [1, 5] | total score of the ranking numbers (cooling effect on treated hand towel) [2, 6] | total score of the ranking numbers (cooling effect on treated hand towel) [2, 7] | total score of the ranking numbers (cooling effect on treated hand towel) [2, 8] | total score of the ranking numbers (cooling effect on treated hand towel) [2, 9] | total score of the ranking numbers (cooling effect on treated hand towel) [2, 10] | total score of the ranking numbers (cooling effect on treated hand towel) [2, 11] | total score of the ranking numbers (cooling effect on treated hand towel after washing) [1, 12] | total score of the ranking numbers (cooling effect on treated hand towel after washing) [1, 13] | total score of the ranking numbers (cooling effect on treated hand towel after washing) [1, 14] | total score of the ranking numbers (cooling effect on treated hand towel after washing) [1, 15] | total score of the ranking numbers (cooling effect on treated hand towel after washing) [1, 16] | total score of the ranking numbers (cooling effect on treated hand towel after washing) [1, 17] | total score of the ranking numbers (cooling effect on treated hand towel) [2, 18] | total score of the ranking numbers (cooling effect on treated hand towel) [2, 19] | total score of the ranking numbers (cooling effect on treated hand towel) [2, 20] | further results
CC1CCC(C(C)C)C(OCCOC(=O)CCC(=O)OC2CC(C)CCC2C(C)C)C1 (stereo not drawn) [Compound 1, l-menthyl-(l-menthoxyethyl)succinic ester] | 11 | 10 | 13 | 18 | 12 | 11 | – | – | – | – | – | – | – | – | – | – | – | – | –
CC(C)[C@@H]1CC[C@@H](C)C[C@H]1O [Compound 1-Menthol, l-menthol, reference compound] | – | – | – | 6 | 24 | 25 | 7 | 24 | 25 | – | – | – | – | – | – | – | – | – | cooling action (in words) ([2]; direct spraying, after air drying for 10 minutes): strongest cooling action; lasting / consistency of cooling action (in words) ([2]; direct spraying, over 10 min to 24 hr): less consistent
CC(C)[C@@H]1CC[C@@H](C)C[C@H]1OCC(O)COC(=O)CCC(=O)O[C@@H]1C[C@H](C)CC[C@H]1C(C)C (stereo partly drawn) [Compound 2, l-menthyl-3-(l-menthoxy)-2-(hydroxypropyl)succinic ester] | 13 | 11 | 12 | 18 | 13 | 13 | – | – | – | – | – | – | – | – | – | – | – | – | –
C=C(C)C1CCC(C)CC1OC(=O)CCC(=O)OC1CC(C)CCC1C(C)C (stereo not drawn) [Compound 3, l-menthyl-(l-isopulegyl)succinic ester] | – | – | – | – | – | – | 16 | 10 | 10 | 11 | 10 | 10 | – | – | – | – | – | – | –
CC(C)=CCCC(C)CCOC(=O)CCC(=O)OC1CC(C)CCC1C(C)C (stereo not drawn) [Compound 4, l-menthyl-(l-citronellyl)succinic ester] | – | – | – | – | – | – | – | – | – | – | – | – | 10 | 12 | 11 | 16 | 18 | 16 | –
CC1CCC(C(C)C)C(OC(=O)CCCC(=O)OCCc2ccccc2)C1 (stereo not drawn) [Compound 6, l-menthyl-(phenylethyl)glutaric ester] | – | – | – | – | – | – | 17 | 14 | 14 | 13 | 14 | 14 | – | – | – | – | – | – | –
CC(C)=CCCC(C)CCOC(=O)CCCC(=O)OC1CC(C)CCC1C(C)C (stereo not drawn) [Compound 7, l-menthyl-(l-citronellyl)glutaric ester] | – | – | – | – | – | – | – | – | – | – | – | – | – | – | – | 15 | 17 | 18 | –
CC1CCC(C(C)C)C(OCCOC(=O)CCCC(=O)OC2CC(C)CCC2C(C)C)C1 (stereo not drawn) [Compound 8, l-menthyl-(l-menthoxyethyl)-glutaric ester] | – | – | – | – | – | – | – | – | – | – | – | – | 13 | 13 | 13 | 13 | 12 | 11 | –
CC1CCC(C(C)C)C(OC(=O)CCCC(=O)OC2CC(C)CCC2C(C)C)C1 (stereo not drawn) [Dimenthylglutaric acid, reference compound] | – | – | – | 22 | 20 | 21 | 22 | 20 | 19 | – | – | – | – | – | – | 22 | 21 | 23 | –
CC1CCC(C(C)C)C(OCC(O)CO)C1 (stereo not drawn) [Menthoxypropanediol, l-menthoxypropanediol, reference compound] | 19 | 20 | 19 | – | – | – | – | – | – | 18 | 19 | 20 | 19 | 20 | 19 | – | – | – | cooling action (in words) ([1]; after the washing treatment and 6 hours of air drying): almost no cooling action was observed
